In ChEMBL document CHEMBL3885861, “Open TG-GATES”:

Organism: Rattus norvegicus
Assay: Open TG-GATES - Regimen: Single
Assay type: toxicity, organism-based, Sprague-Dawley
Set-up: regimen Single, gender Male, age 6 weeks
Details: in vivo, po, 300 mg/kg, route gavage, dose level Middle; for APTT / Bas / Eos / Fbg / Hb / Ht / Lym / MCH / MCHC / MCV / Mono / Neu / PT / Plat / RBC / Ret / WBC: tissue Blood; for KIDNEY_L / KIDNEY_R / KIDNEY_TOTAL: tissue Kidney; for LIVER: tissue Liver; for A/G / ALP / ALT / AST / BUN / CRE / Ca / Cl / DBIL / GLC / IP / K / LDH / Na / PL / RALB / TBIL / TC / TG / TP / gamma-GTP: tissue Plasma

COc1ccc(Cl)cc1C(=O)NCCc1ccc(S(=O)(=O)NC(=O)NC2CCCCC2)cc1 [GLYBURIDE]
TERMINAL_BW (3 h): 217.4 g
APTT (3 h): 18.5 s
Bas (3 h): 0%
Eos (3 h): 1%
Fbg (3 h): 239 mg/dL
Hb (3 h): 13.3 g/dL
Ht (3 h): 40.4%
Lym (3 h): 72%
MCH (3 h): 20.3 pg
MCHC (3 h): 32.9%
MCV (3 h): 61.7 fL
Mono (3 h): 2.6%
Neu (3 h): 23.8%
PT (3 h): 12.6 s
Plat (3 h): 139.4 x10_4/uL
RBC (3 h): 655.2 x10_4/ul
Ret (3 h): 8.6%
WBC (3 h): 79 x10_2/uL
KIDNEY_L (3 h): 1 g
KIDNEY_R (3 h): 1 g
KIDNEY_TOTAL (3 h): 1.9 g
LIVER (3 h): 9.7 g
A/G (3 h): 1.5
ALP (3 h): 1040 IU/L
ALT (3 h): 46.4 IU/L
AST (3 h): 70.8 IU/L
BUN (3 h): 12.2 mg/dL
CRE (3 h): 0.3 mg/dL
Ca (3 h): 10.8 mg/dL
Cl (3 h): 103.6 meq/L
DBIL (3 h): 0.1 mg/dL
GLC (3 h): 136.4 mg/dL
IP (3 h): 8.7 mg/dL
K (3 h): 3.7 meq/L
LDH (3 h): 143.8 IU/L
Na (3 h): 141.2 meq/L
PL (3 h): 165.8 mg/dL
RALB (3 h): 3.5 g/dL
TBIL (3 h): 0.2 mg/dL
TC (3 h): 82.4 mg/dL
TG (3 h): 88 mg/dL
TP (3 h): 5.7 g/dL
gamma-GTP (3 h): 1 IU/L
TERMINAL_BW (6 h): 216.4 g
APTT (6 h): 18.7 s
Bas (6 h): 0%
Eos (6 h): 0.8%
Fbg (6 h): 215.8 mg/dL
Hb (6 h): 13.4 g/dL
Ht (6 h): 41%
Lym (6 h): 74.4%
MCH (6 h): 20.7 pg
MCHC (6 h): 32.6%
MCV (6 h): 63.6 fL
Mono (6 h): 3%
Neu (6 h): 21%
PT (6 h): 12.9 s
Plat (6 h): 123.3 x10_4/uL
RBC (6 h): 645.6 x10_4/ul
Ret (6 h): 8.3%
WBC (6 h): 114.4 x10_2/uL
KIDNEY_L (6 h): 1 g
KIDNEY_R (6 h): 0.9 g
KIDNEY_TOTAL (6 h): 1.9 g
LIVER (6 h): 9.6 g
A/G (6 h): 1.6
ALP (6 h): 903.6 IU/L
ALT (6 h): 33.6 IU/L
AST (6 h): 62.2 IU/L
BUN (6 h): 11.8 mg/dL
CRE (6 h): 0.3 mg/dL
Ca (6 h): 10.8 mg/dL
Cl (6 h): 103.6 meq/L
DBIL (6 h): 0.1 mg/dL
GLC (6 h): 161.4 mg/dL
IP (6 h): 9 mg/dL
K (6 h): 3.8 meq/L
LDH (6 h): 134.8 IU/L
Na (6 h): 140.8 meq/L
PL (6 h): 139.2 mg/dL
RALB (6 h): 3.4 g/dL
TBIL (6 h): 0.2 mg/dL
TC (6 h): 72.4 mg/dL
TG (6 h): 69.4 mg/dL
TP (6 h): 5.7 g/dL
gamma-GTP (6 h): 0.8 IU/L
TERMINAL_BW (9 h): 213.5 g
APTT (9 h): 19.3 s
Bas (9 h): 0%
Eos (9 h): 1%
Fbg (9 h): 234.8 mg/dL
Hb (9 h): 13.4 g/dL
Ht (9 h): 41%
Lym (9 h): 67.8%
MCH (9 h): 20.7 pg
MCHC (9 h): 32.8%
MCV (9 h): 63.2 fL
Mono (9 h): 3%
Neu (9 h): 27.4%
PT (9 h): 12.6 s
Plat (9 h): 119.4 x10_4/uL
RBC (9 h): 648.6 x10_4/ul
Ret (9 h): 7.9%
WBC (9 h): 119.6 x10_2/uL
KIDNEY_L (9 h): 0.9 g
KIDNEY_R (9 h): 1 g
KIDNEY_TOTAL (9 h): 1.9 g
LIVER (9 h): 9.4 g
A/G (9 h): 1.5
ALP (9 h): 926.6 IU/L
ALT (9 h): 35.8 IU/L
AST (9 h): 65.2 IU/L
BUN (9 h): 12.2 mg/dL
CRE (9 h): 0.3 mg/dL
Ca (9 h): 10.6 mg/dL
Cl (9 h): 102.8 meq/L
DBIL (9 h): 0.086 mg/dL
GLC (9 h): 148.4 mg/dL
IP (9 h): 10.2 mg/dL
K (9 h): 3.6 meq/L
LDH (9 h): 133.6 IU/L
Na (9 h): 141.6 meq/L
PL (9 h): 149.2 mg/dL
RALB (9 h): 3.5 g/dL
TBIL (9 h): 0.1 mg/dL
TC (9 h): 76.2 mg/dL
TG (9 h): 58.6 mg/dL
TP (9 h): 5.8 g/dL
gamma-GTP (9 h): 1.8 IU/L
TERMINAL_BW (24 h): 225 g
APTT (24 h): 18.1 s
Bas (24 h): 0.2%
Eos (24 h): 1%
Fbg (24 h): 220.2 mg/dL
Hb (24 h): 12.9 g/dL
Ht (24 h): 37.9%
Lym (24 h): 82.6%
MCH (24 h): 21.5 pg
MCHC (24 h): 33.9%
MCV (24 h): 63.5 fL
Mono (24 h): 1.8%
Neu (24 h): 14%
PT (24 h): 12.5 s
Plat (24 h): 119.5 x10_4/uL
RBC (24 h): 597.4 x10_4/ul
Ret (24 h): 6.6%
WBC (24 h): 91.9 x10_2/uL
KIDNEY_L (24 h): 1 g
KIDNEY_R (24 h): 1 g
KIDNEY_TOTAL (24 h): 2 g
LIVER (24 h): 10.4 g
A/G (24 h): 1.7
ALP (24 h): 931.4 IU/L
ALT (24 h): 36.2 IU/L
AST (24 h): 65 IU/L
BUN (24 h): 15.8 mg/dL
CRE (24 h): 0.4 mg/dL
Ca (24 h): 10.7 mg/dL
Cl (24 h): 102.4 meq/L
DBIL (24 h): 0.088 mg/dL
GLC (24 h): 202 mg/dL
IP (24 h): 8.3 mg/dL
K (24 h): 3.5 meq/L
LDH (24 h): 182.2 IU/L
Na (24 h): 141.8 meq/L
PL (24 h): 144.4 mg/dL
RALB (24 h): 3.4 g/dL
TBIL (24 h): 0.1 mg/dL
TC (24 h): 79 mg/dL
TG (24 h): 62.6 mg/dL
TP (24 h): 5.4 g/dL
gamma-GTP (24 h): 1.4 IU/L
